The source made the active and inactive calls. No cut-off for these calls is given here.
What was measured:
B1 bradykinin receptor [1] = target: T1, B1 bradykinin receptor (Homo sapiens, UniProt P46663); assay: Antagonist activity at human B1 receptor; assay type: functional
T1 sequence (P46663 whole entry): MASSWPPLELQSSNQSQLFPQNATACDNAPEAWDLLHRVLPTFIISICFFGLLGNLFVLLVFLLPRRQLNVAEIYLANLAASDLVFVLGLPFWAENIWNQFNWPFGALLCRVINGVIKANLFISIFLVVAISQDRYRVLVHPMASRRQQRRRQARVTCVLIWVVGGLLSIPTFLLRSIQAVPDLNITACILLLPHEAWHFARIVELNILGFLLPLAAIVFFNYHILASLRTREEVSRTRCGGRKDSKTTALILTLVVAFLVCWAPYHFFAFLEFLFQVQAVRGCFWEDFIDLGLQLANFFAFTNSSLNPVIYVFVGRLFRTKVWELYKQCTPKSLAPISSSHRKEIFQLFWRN

[2] = Half life in dog at 1 mg/kg, iv; assay type: ADME, organism-based, Canis lupus familiaris; design: dose 1 mg/kg, route intravenous; conditions: in vivo
[3] = Clearance in Sprague-Dawley rat at 2 mg/kg, iv; assay type: ADME, organism-based; design: dose 2 mg/kg, route intravenous; conditions: in vivo
[4] = Half life in Sprague-Dawley rat at 2 mg/kg, iv; assay type: ADME, organism-based; design: dose 2 mg/kg, route intravenous; conditions: in vivo
B1 bradykinin receptor [5] = target: T2, B1 bradykinin receptor (Oryctolagus cuniculus, UniProt P48748); assay: Inhibition of rabbit B1 receptor by cellular calcium flux assay; assay type: functional
T2 sequence (P48748 whole entry): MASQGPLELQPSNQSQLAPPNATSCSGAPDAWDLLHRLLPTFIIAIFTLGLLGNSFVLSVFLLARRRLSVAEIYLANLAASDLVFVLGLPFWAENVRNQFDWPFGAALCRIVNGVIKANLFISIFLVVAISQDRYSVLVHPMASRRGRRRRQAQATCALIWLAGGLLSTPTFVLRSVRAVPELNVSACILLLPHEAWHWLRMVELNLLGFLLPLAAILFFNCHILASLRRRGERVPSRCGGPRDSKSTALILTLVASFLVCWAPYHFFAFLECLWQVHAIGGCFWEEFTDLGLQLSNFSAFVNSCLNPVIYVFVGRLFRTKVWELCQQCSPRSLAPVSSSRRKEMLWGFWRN

[6] = Oral bioavailability in Sprague-Dawley rat at 5 mg/kg; assay type: ADME, organism-based; conditions: in vivo
B1 bradykinin receptor [7] = target: T1, B1 bradykinin receptor; assay: Antagonist activity at human B1 receptor expressed in CHO cells by aequorin-based calcium flux assay; assay type: functional, cell-based
[8] = Volume of distribution at steady state in Sprague-Dawley rat at 2 mg/kg, iv; assay type: ADME, organism-based; design: dose 2 mg/kg, route intravenous; conditions: in vivo, read-out: Vdss
[9] = Volume of distribution at steady state in dog at 1 mg/kg, iv; assay type: ADME, organism-based, Canis lupus familiaris; design: dose 1 mg/kg, route intravenous; conditions: in vivo, read-out: Vdss
[10] = Clearance in dog at 1 mg/kg, iv; assay type: ADME, organism-based, Canis lupus familiaris; design: dose 1 mg/kg, route intravenous; conditions: in vivo
[11] = Oral bioavailability in dog at 1 mg/kg; assay type: ADME, organism-based, Canis lupus familiaris; conditions: in vivo
[12] = target: Potassium voltage-gated channel subfamily A member 5 (Homo sapiens) (UniProt P22460); assay: Activity at Kv1.5 ion channel at 1 uM
Chain of Potassium voltage-gated channel subfamily A member 5 (Homo sapiens) (P22460 whole entry): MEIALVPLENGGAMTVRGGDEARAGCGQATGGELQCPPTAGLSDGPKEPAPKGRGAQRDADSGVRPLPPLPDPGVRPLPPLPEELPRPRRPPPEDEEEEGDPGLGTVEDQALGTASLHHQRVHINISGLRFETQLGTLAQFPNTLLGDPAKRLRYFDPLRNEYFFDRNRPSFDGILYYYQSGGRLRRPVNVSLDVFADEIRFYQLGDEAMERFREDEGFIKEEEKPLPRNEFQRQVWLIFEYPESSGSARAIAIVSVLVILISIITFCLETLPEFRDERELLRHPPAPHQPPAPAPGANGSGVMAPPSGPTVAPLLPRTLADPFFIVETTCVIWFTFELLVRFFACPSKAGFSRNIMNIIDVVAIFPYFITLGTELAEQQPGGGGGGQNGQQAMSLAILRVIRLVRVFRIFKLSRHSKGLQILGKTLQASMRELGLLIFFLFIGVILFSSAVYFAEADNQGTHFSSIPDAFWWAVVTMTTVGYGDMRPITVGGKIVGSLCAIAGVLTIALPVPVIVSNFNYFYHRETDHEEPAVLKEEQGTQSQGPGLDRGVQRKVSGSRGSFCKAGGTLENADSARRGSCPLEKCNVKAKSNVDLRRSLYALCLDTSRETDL

[13] = target: Sodium channel protein type 5 subunit alpha (Homo sapiens, UniProt Q14524); assay: Activity at Nav1.5 ion channel at 1 uM
Chain of Sodium channel protein type 5 subunit alpha (Q14524 whole entry): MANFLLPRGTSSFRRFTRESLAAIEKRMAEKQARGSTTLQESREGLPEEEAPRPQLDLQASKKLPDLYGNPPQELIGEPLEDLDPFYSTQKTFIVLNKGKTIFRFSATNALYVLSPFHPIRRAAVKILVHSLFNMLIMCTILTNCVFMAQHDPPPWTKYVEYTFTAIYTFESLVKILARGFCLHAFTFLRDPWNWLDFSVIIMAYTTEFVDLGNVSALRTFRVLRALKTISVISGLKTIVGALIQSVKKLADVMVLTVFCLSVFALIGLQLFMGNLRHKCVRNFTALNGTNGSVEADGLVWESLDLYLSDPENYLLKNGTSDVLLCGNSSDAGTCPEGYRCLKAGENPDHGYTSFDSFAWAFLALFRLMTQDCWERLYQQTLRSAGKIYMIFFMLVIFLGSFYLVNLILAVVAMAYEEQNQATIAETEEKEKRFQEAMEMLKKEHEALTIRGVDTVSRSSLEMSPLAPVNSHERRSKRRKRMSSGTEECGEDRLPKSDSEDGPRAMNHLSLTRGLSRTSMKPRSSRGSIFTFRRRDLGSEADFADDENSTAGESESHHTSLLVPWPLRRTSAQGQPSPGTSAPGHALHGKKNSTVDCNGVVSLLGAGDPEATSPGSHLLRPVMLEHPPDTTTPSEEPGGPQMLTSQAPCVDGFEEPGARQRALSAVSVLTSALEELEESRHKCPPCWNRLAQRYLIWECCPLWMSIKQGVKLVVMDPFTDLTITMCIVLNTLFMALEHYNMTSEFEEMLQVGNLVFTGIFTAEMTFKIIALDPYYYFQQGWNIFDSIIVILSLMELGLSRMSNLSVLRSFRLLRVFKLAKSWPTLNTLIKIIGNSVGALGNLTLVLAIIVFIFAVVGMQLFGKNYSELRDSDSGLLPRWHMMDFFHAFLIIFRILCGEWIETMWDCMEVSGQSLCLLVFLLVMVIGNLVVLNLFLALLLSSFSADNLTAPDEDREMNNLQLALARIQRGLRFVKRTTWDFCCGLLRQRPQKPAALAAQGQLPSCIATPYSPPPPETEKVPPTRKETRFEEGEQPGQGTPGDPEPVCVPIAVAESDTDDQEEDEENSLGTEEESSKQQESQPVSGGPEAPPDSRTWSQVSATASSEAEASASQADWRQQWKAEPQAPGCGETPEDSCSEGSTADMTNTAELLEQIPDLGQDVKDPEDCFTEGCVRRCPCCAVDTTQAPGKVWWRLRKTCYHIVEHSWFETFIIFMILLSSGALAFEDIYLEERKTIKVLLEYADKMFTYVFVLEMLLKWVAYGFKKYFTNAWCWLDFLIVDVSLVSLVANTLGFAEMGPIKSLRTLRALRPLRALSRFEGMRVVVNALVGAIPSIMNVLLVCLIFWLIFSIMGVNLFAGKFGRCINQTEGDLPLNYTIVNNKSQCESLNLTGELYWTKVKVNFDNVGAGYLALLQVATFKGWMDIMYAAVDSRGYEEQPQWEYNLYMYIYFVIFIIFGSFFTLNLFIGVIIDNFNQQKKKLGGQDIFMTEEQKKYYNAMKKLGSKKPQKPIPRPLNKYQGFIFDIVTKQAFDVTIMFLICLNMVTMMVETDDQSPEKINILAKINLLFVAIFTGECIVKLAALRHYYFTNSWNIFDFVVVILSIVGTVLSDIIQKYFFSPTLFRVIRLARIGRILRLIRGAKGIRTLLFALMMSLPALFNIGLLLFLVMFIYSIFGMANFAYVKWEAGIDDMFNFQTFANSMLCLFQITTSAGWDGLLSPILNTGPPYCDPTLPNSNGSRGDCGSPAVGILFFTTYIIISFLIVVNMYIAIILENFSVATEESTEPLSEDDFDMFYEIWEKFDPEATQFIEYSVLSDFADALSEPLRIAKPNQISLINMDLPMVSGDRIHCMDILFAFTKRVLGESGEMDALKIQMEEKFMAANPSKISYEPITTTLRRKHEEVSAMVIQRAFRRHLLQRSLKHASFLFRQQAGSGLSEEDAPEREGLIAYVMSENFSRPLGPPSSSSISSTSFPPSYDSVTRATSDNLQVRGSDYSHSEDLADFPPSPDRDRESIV

[14] = target: Voltage-gated inwardly rectifying potassium channel KCNH2 (Homo sapiens, UniProt Q12809); assay: Inhibition of human hERG at 1 uM
Chain of Voltage-gated inwardly rectifying potassium channel KCNH2 (Q12809 whole entry): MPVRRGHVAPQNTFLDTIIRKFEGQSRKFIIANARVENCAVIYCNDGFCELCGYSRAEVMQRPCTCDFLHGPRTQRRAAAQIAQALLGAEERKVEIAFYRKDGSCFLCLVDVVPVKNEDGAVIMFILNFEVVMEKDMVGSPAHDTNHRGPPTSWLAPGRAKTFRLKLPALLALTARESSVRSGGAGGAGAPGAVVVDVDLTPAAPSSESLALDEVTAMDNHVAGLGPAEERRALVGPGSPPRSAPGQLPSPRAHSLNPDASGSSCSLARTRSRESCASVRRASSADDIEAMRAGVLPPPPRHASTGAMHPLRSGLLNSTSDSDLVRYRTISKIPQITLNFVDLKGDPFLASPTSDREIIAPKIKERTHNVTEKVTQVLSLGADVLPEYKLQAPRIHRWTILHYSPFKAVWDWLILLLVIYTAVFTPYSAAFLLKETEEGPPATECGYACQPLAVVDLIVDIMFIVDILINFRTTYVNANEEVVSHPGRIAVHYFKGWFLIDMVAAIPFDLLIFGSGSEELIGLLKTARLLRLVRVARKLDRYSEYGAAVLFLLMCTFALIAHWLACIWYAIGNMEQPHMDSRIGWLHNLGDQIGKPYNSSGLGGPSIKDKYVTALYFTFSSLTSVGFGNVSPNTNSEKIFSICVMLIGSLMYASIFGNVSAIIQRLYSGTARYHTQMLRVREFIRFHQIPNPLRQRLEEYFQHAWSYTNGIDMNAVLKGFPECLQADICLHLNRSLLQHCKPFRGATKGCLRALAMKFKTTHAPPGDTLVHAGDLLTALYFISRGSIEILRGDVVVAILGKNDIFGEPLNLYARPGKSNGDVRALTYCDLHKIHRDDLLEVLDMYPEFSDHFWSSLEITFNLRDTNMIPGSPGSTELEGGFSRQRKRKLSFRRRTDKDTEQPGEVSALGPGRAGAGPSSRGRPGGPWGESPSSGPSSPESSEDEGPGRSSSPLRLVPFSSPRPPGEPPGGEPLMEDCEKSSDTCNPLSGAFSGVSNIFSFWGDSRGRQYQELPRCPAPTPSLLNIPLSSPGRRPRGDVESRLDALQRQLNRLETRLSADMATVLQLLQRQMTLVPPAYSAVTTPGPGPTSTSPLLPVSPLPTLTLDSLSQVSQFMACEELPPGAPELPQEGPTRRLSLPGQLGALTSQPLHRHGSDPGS

[15] = Oral bioavailability in Sprague-Dawley rat; assay type: ADME, organism-based; conditions: in vivo
[16] = Clearance in Sprague-Dawley rat; assay type: ADME, organism-based; conditions: in vivo
B1 bradykinin receptor [17] = target: T1, B1 bradykinin receptor; assay: Antagonist activity at human B1 receptor by cell-based assay; assay type: functional
Oryctolagus cuniculus [18] = assay: Antihypertensive activity in sc dosed rabbit assessed as reduction in DAK-induced hypotension
[19] = Fraction unbound in rabbit plasma; assay type: ADME, cell-free, Oryctolagus cuniculus
Oryctolagus cuniculus [20] = assay: […] activity in LPS treated rabbit assessed as reversal of DAK-induced hypotension at 0.03 to 3 mg/kg, sc; assay type: functional, organism-based
Oryctolagus cuniculus [21] = assay: […] activity in LPS treated rabbit assessed as reversal of DAK-induced hypotension at 0.003 to 1 mg/kg, sc; assay type: functional, organism-based

With `O=C(N[C@@H]1CCCc2cc(CN3CCCCC3)ccc21)c1cccc(-n2cnc3ccccc3c2=O)c1` the Ki (B1 bradykinin receptor [1]) was > 10000 nM.
`Cc1nn(-c2ccc(C(=O)N[C@@H]3CCCc4cc(CN5CCCCC5)ccc43)cc2)c(=O)c2c(F)ccc(F)c12` showed a Ki (B1 bradykinin receptor [1]) of 3.5 nM.
In the case of `Cc1nn(-c2ccc(C(=O)N[C@@H]3CCCc4cc(CN5CCCCC5)ccc43)cc2)c(=O)c2c(Cl)cccc12`, the half-life [2] is reported as 8.9 h, the clearance [3] is reported as 11.2 mL/min/kg and the half-life [4] is reported as 10.4 h. The IC50 (B1 bradykinin receptor [5]) was 21.4 nM, the bioavailability [6] was 90% and the IC50 (B1 bradykinin receptor [7]) was 1 nM. For the same compound, the Vd [8] was 7.85 L/kg, the Vd [9] was 10.6 L/kg and the clearance [10] was 19 mL/min/kg. For the same compound, the bioavailability [11] was 60% and the Ki (B1 bradykinin receptor [1]) was 0.9 nM.
Compound `Cc1nn(-c2ccc(C(=O)N[C@@H]3CCCc4cc(CN5CCCCC5)ccc43)cn2)c(=O)c2c(F)ccc(F)c12` has an IC50 (B1 bradykinin receptor [5]) of 2.2 nM, an IC50 (B1 bradykinin receptor [7]) of 0.3 nM and a Ki (B1 bradykinin receptor [1]) of 0.6 nM.
In the case of `Cc1nn(-c2ccc(C(=O)N[C@@H]3CCCc4cc(CN5CCCCC5)ccc43)cn2)c(=O)c2c(Cl)cccc12`, the Activity [12] is reported as “inactive”, the Activity [13] is reported as “Not Active” and the Activity [14] is reported as “Not Active”.
For `O=C(N[C@@H]1CCCc2cc(CN3CCCCC3)ccc21)c1ccc(-n2nc(-c3ccccc3)c3ccccc3c2=O)cc1`, the Ki (B1 bradykinin receptor [1]) was 418 nM.
Compound `O=C(Cc1ccc(C(=O)N[C@@H]2CCCc3cc(CN4CCCCC4)ccc32)cc1)c1ccccc1` has a Ki (B1 bradykinin receptor [1]) of 296 nM.
In the case of `Cc1nn(-c2ccc(C(=O)N[C@@H]3CCCc4cc(CN5CCCCC5)ccc43)cc2)c(=O)c2ccccc12`, the clearance [3] is reported as 15 mL/min/kg, the half-life [4] is reported as 6.1 h and the bioavailability [6] is reported as 51%. For the same compound, the Vd [8] was 8.09 L/kg and the Ki (B1 bradykinin receptor [1]) was 35 nM.
In the case of `Cc1ccc(S(=O)(=O)N2CCNC(=O)[C@H]2CC(=O)N[C@@H]2CCCc3cc(CN4CCCCC4)ccc32)cc1`, the bioavailability [15] is reported as 6%, the IC50 (B1 bradykinin receptor [5]) is reported as 4.1 nM and the clearance [16] is reported as 123 mL/min/kg.
`Cc1nn(-c2cccc(C(=O)N[C@@H]3CCCc4cc(CN5CCCCC5)ccc43)c2)c(=O)c2ccccc12` gave a Ki (B1 bradykinin receptor [1]) of 6370 nM.
For `O=C(N[C@@H]1CCCc2cc(CN3CCCCC3)ccc21)c1cccc(-c2coc3ccccc3c2=O)c1`, the Ki (B1 bradykinin receptor [1]) was 64 nM.
`CCc1nn(-c2ccc(C(=O)N[C@@H]3CCCc4cc(CN5CCCCC5)ccc43)cc2)c(=O)c2ccccc12` gave a Ki (B1 bradykinin receptor [1]) of 29 nM.
For `Cc1nn(-c2ccc(C(=O)N[C@@H]3CCCc4cc(CN5CCCCC5)ccc43)cc2)c(=O)c2c(F)cccc12`, the Ki (B1 bradykinin receptor [1]) was 1.9 nM.
With `O=C(N[C@@H]1CCCc2cc(CN3CCCCC3)ccc21)c1ccc(-n2cnc3ccccc3c2=O)cc1` the Ki (B1 bradykinin receptor [1]) was 614 nM.
In the case of `O=C(CCCCC(=O)c1ccccc1)N[C@@H]1CCCc2cc(CN3CCCCC3)ccc21`, the IC50 (B1 bradykinin receptor [17]) is reported as 1370 nM and the Ki (B1 bradykinin receptor [1]) is reported as 1680 nM.
With `Cc1nn(-c2ccc(C(=O)N[C@@H]3CCCc4cc(CN5CCCCC5)ccc43)cn2)c(=O)c2c(F)cccc12` the Activity [12] was “inactive”, the clearance [3] was 23.5 mL/min/kg and the half-life [4] was 3.3 h. For the same compound, the Activity [13] was “Not Active”, the IC50 (B1 bradykinin receptor [5]) was 0.6 nM and the bioavailability [6] was 61%. It also gave an IC50 (Oryctolagus cuniculus [18]) of 2.5 nM, a fraction unbound [19] of 0.24 and an IC50 (B1 bradykinin receptor [7]) of 0.09 nM. The Vd [8] was 6.45 L/kg, the Activity (Oryctolagus cuniculus [20]) was “Active” and the Activity [14] was “Not Active”. For the same compound, the Activity (Oryctolagus cuniculus [21]) was “Active” and the Ki (B1 bradykinin receptor [1]) was 0.6 nM.

— ChEMBL document CHEMBL1833915, “Discovery of potent, orally bioavailable phthalazinone bradykinin B1 receptor antagonists” (J Med Chem, 2011)
